Experimental data from US11529332B2 (priority 2017, dated 2022).
Where two headings read alike, the source gives them in different places.

Assays:
[1] = tested on: RK13 cells
Experimental: (§1) RK13 cells for the toxicity study and RK13 cells at MOI 0.01 6 days PI are fixed and image acquisition and analysis are performed as previously described.

[2] = tested on: MYXV; assay: Lysis plaque analysis in RK13 infected with MYXV; format: cell-based, Myxoma virus; conditions: 6d PI
Experimental: Lysis plaque analysis was carried out in RK13 infected with MYXV 6d PI. Lysis plaques area and number of lysis plaques were assessed directly on microscope pictures (FIG. 4).

[3] = tested on: MYXV; assay: MYXV-GFP infection rate in RK13 cells (high content microscopy); conditions: for Inhibition of MYXV infection rate (in words): RK13 cells; for IC50: MYXV in RK13 cells
Experimental: RK13 (rabbit epitelial kidney) cells were used for MYXV infection assay.
Cells were grown in 200 μL Dulbecco's Modified Eagle's medium (DMEM) without phenol red (Sigma-Aldrich), 10% SVF, Pen-strep, 1× sodium pyruvate, 1× Glutamax.
RK13 cells at MOI 0.5 48 h post-infection (PI) are fixed with Formalin 10 min at room temperature. Wash with 200 μL PBS and 100 μL PBS/Hoechst 33342 (1/1000) per well. 96 well plates are kept at 4° C. in the dark until data acquisition. Image acquisition and analysis for high content quantification is performed on a Thermo Cellomics Arrayscan VTI microscope using a modified compartmental analysis algorithm.
as §1
On 48 h and 6d post-infection, data acquisition was done by high content microscopy to calculate infection level according to compound concentration.

[4] = read-out: IC50 (48 h PI), MOI 0.5, 48 h post-infection
[5] = read-out: IC50 (6 d PI), MOI 0.01, 6 days post-infection

`O=[N+]([O-])c1ccc(-c2c3nc(c4ccc([nH]4)c(-c4ccc([N+](=O)[O-])cc4)c4ccc([nH]4)c(-c4ccc([N+](=O)[O-])cc4)c4ccc2[nH]4)C=C3)cc1` [TpNO2Cor, 5,10,15-Tris(4-nitrophenyl)corrole] was tested, and the CC50 [1] was 4360 nM, the “Area in cm^2 of lysis plaques” value ([2]; concentration 0.37 μM) was 9 cm^2 and the “Number of lysis plaques” value ([2]; concentration 0.37 μM) was 4. The “Area in cm^2 of lysis plaques” value ([2]; concentration 0.75 μM) was 3.4 cm^2, the “Number of lysis plaques” value ([2]; concentration 0.75 μM) was 6.7 and the “Number of lysis plaques” value ([2]; concentration 1.5 μM) was 2.7. The “Number of lysis plaques” value ([2]; concentration 3.1 μM) was 0, the “Inhibition of MYXV infection rate (in words)” value [3] was “better in vitro anti-MYXV effect than FNO2Cor” and the IC50 [3, 4] was 430 nM. It also gave an IC50 [3, 5] of 200 nM.

`O=[N+]([O-])c1ccc(F)c(-c2c3nc(c4ccc([nH]4)c(-c4cc([N+](=O)[O-])ccc4F)c4ccc([nH]4)c(-c4cc([N+](=O)[O-])ccc4F)c4ccc2[nH]4)C=C3)c1` [FNO2Cor, 5,10,15-Tris(2-fluoro-5-nitrophenyl)corrole] was tested, and the CC50 [1] was 3740 nM, the “Area in cm^2 of lysis plaques” value ([2]; concentration 0.37 μM) was 8 cm^2 and the “Number of lysis plaques” value ([2]; concentration 0.37 μM) was 5. For the same compound, the “Area in cm^2 of lysis plaques” value ([2]; concentration 0.75 μM) was 3.4 cm^2, the “Number of lysis plaques” value ([2]; concentration 0.75 μM) was 6 and the “Number of lysis plaques” value ([2]; concentration 1.5 μM) was 1.3. For the same compound, the “Number of lysis plaques” value ([2]; concentration 3.1 μM) was 0, the IC50 [3, 4] was 1330 nM and the IC50 [3, 5] was 500 nM.

For `Fc1c(F)c(F)c(-c2c3nc(c4ccc([nH]4)c(-c4c(F)c(F)c(F)c(F)c4F)c4ccc([nH]4)c(-c4c(F)c(F)c(F)c(F)c4F)c4ccc2[nH]4)C=C3)c(F)c1F` [TPFCor, 5,10,15-Tris(pentafluorophenyl)corrole], the CC50 [1] was 6680 nM, the “Area in cm^2 of lysis plaques” value ([2]; concentration 0.37 μM) was 6 cm^2 and the “Number of lysis plaques” value ([2]; concentration 0.37 μM) was 6.7. The “Number of lysis plaques” value ([2]; concentration 0.75 μM) was 6, the “Number of lysis plaques” value ([2]; concentration 1.5 μM) was 3.3 and the “Number of lysis plaques” value ([2]; concentration 3.1 μM) was 4. For the same compound, the “Inhibition of MYXV infection rate (in words)” value [3] was “better in vitro anti-MYXV effect than FNO2Cor”, the IC50 [3, 4] was 270 nM and the IC50 [3, 5] was 120 nM.
